Results on 20 molecules are retold here after paper PMC4865917, “Positive Allosteric Modulation of the Glucagon-like Peptide-1 Receptor by Diverse Electrophiles” (The Journal of Biological Chemistry, 2016).

pIC50: −log10 of the molar value. Where two headings read alike, the source gives them in different places.

The target in assay [1] is T1, human GLP-1R (Homo sapiens, UniProt P43220).
T1 construct: gene GLP1R; full-length receptor expressed in HEK293 cells; C347A mutant carries a 1xFLAG tag
T1 sequence (P43220 24-463): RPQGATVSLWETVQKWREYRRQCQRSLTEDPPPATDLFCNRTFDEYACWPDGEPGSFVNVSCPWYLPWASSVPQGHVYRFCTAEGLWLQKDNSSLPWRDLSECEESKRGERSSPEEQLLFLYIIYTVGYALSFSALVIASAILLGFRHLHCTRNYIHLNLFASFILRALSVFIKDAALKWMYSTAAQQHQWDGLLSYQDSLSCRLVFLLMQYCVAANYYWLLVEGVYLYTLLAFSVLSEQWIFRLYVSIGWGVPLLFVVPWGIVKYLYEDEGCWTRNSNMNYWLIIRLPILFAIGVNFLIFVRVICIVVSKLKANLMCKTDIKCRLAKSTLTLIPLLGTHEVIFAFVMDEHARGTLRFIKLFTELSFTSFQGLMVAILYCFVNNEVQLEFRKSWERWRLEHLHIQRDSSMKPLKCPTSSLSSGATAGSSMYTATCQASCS
Nature of the assay: HTRF cAMP accumulation, HEK293 cells. The class given is cell-based. From the text:
(§1) HTRF cAMP accumulation, HEK293 cells on human GLP-1R

The target in assay [2] is T2, human GLP-1R (Homo sapiens, UniProt P43220, C347A).
T2 construct: gene GLP1R; full-length receptor expressed in HEK293 cells; C347A mutant carries a 1xFLAG tag
T2 sequence (P43220 24-463 C347A): as the sequence (P43220 24-463) above, with C324A counted along it
Nature of the assay: HTRF cAMP accumulation, HEK293 cells. It is filed as cell-based.
Source text: as §1
On the technique in general: In TR-FRET formats the signal depends on donor and acceptor labels being close together.

The target of assay [3] is T1, human GLP-1R. Nature of the assay: anti-FLAG immunoprecipitation, PAGE fluorography. The class given is cell-based. Particulars: 500 nM [3H]BETP, 2 h, 37 °C, GLP-1R-3xFLAG in HEK293; covalent; labelled compound.
For assay [4], the target named is T3, human CatL (Homo sapiens, UniProt P07711).
T3 construct: gene CTSL; commercial cathepsin L (Calbiochem)
T3 sequence (P07711 114-288 limits assumed): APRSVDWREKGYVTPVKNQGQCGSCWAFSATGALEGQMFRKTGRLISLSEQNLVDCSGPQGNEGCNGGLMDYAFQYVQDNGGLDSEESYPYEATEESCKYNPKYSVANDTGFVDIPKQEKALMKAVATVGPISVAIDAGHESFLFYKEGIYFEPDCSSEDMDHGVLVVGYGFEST
T3 sequence (P07711 292-333 limits assumed): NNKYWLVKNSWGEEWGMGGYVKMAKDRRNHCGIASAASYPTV
Briefly: fluorogenic Z-Phe-Arg-AMC hydrolysis. It is filed as biochemical.

The mark [5] stands for this setting: read-out: Compound, EC50 WT (nM) (S.D., n).
[6] abbreviates: read-out: EC50, C347A (nM) (S.D., n).
[7] abbreviates: read-out: Compound, EC50, WT (nM) (S.D., n).
The mark [8] stands for this setting: read-out: Compound, EC50, C347A (nM) (S.D., n).

As to `CC[S+]([O-])c1nc(-c2cccc(OCc3ccccc3)c2)cc(C(F)(F)F)n1` (centres unmarked) [BETP, 4-(3-benzyloxyphenyl)-2-ethylsulfinyl-6-(trifluoromethyl)pyrimidine], the results for the EC50 in assay [1] (setting [5]) and in assay [2] (setting [6]) were 1300 nM and over 30000 nM, respectively. For the same molecule, in assay [3], the “anti-FLAG immunoprecipitation, PAGE fluorography” value is “The finding that [^3H]BETP irreversibly labels the GLP-1R”. In assay [4] (read-out: CatL,^c IC50), the pIC50 (as a rule, the negative decadic logarithm of the IC50, by convention in mol/L) was under 4.48.
For `O=C(NCc1ccccc1)[C@H](Cc1ccccc1)NC(=O)[C@H]1O[C@@H]1C(=O)NCCc1ccc(O)cc1` [CAA0225, (2S,3S)-N2-[(1S)-1-benzyl-2-(benzylamino)-2-oxo-ethyl]-N3-[2-(4-hydroxyphenyl)ethyl]oxirane-2,3-dicarboxamide, reference compound], the pIC50 in assay [4] (read-out: IC50) is 8.22.
For the molecule `Cc1nnc(Sc2nc3cc(Cl)c(Cl)cc3nc2C(F)(F)F)s1` [compound 1], the EC50 (as a rule, the concentration giving half of the maximal effect) in assay [1] (setting [5]) was 860 nM; in assay [2] (setting [6]) it was over 30000 nM.
As for `CC(C)(C)Nc1nc2cc(Cl)c(Cl)cc2nc1S(C)(=O)=O` [compound 2], the values for the EC50 in assay [1] (setting [5]) and in assay [2] (setting [6]) were 25 nM and over 30000 nM, respectively.
For the molecule `FC(F)(F)c1nc2cc(Cl)c(Cl)cc2nc1Cl` [compound 3], the EC50 in assay [1] (setting [5]) is 4700 nM; in assay [2] (setting [6]) it was over 30000 nM.
Regarding `CC1(C)CC(=O)c2c(S(C)(=O)=O)sc(-c3nnc(-c4ccc(C(C)(C)C)cc4)o3)c2C1` [compound 5], the EC50 in assay [1] (setting [5]) was 1500 nM; in assay [2] (setting [6]), over 30000 nM.
As to `CC1(C)CC(=O)c2c(S(C)(=O)=O)sc(C(=O)c3ccc(-c4ccccc4)cc3)c2C1` [compound 6], the values for the EC50 in assay [1] (setting [5]) and in assay [2] (setting [6]) were 1430 nM and over 30000 nM, respectively.
As to `FC(F)(F)c1nc2ccccc2nc1Sc1ccc(Cl)cc1` [compound 7], the EC50 in assay [1] (setting [5]) was over 30000 nM.
As for `O=C(Oc1cccc(-c2cn3cc(C(F)(F)F)cc(Cl)c3n2)c1)C1CCCCC1` [compound 8], the EC50 in assay [1] (setting [5]) is over 30000 nM.
As for `Cc1ccc(-c2cccc(C(=O)NC(Cc3ccc(-c4noc(-c5ccc(NC(=O)OC(C)(C)C)cc5)n4)c(F)c3)C(=O)O)c2)cc1` (centres unmarked) [compound 9], the EC50 in assay [1] (setting [5]) came out at 1500 nM; in assay [2] (setting [6]) it was 1400 nM.
Regarding `Clc1nc2c(-c3ccccc3)nnn2c2ccccc12` [compound 11], the EC50 in assay [1] (setting [7]) was 7000 nM; in assay [2] (setting [8]) it was over 30000 nM. In assay [4] (read-out: CatL,^c IC50), the pIC50 is under 4.48.
Regarding `CS(=O)(=O)c1nc(-c2ccccc2)cc(-c2ccccc2)c1C#N` [compound 12], the EC50 was 6000 nM in assay [1] (setting [7]) and over 30000 nM in assay [2] (setting [8]). Further, the pIC50 in assay [4] (read-out: CatL,^c IC50) is under 4.48.
`CCOC(=O)c1ccc(N2Cc3ccccc3C(=Cc3ccc(Br)cc3)C2=N)cc1` [compound 13]: the EC50 in assay [1] (setting [7]) was 1000 nM; in assay [2] (setting [8]) it was over 30000 nM. Further, in assay [4] (read-out: CatL,^c IC50), the negative logarithm of the IC50 (pIC50) was under 4.48.
Turning to `Clc1nc2ccc3nsnc3c2nc1Cl` [compound 14], the EC50 in assay [2] (setting [8]) is over 30000 nM. For the same molecule, the pIC50 in assay [4] (read-out: CatL,^c IC50) is under 4.48.
`O=S(=O)(c1ccccc1)c1nc(-c2ccccc2)ns1` [compound 15]: the EC50 is 1300 nM in assay [1] (setting [7]) and over 30000 nM in assay [2] (setting [8]). In assay [4] (read-out: CatL,^c IC50), the pIC50 is 4.60.
For `CS(=NC(=O)Nc1ccc(Cl)cc1)c1sc(Cl)c2c1C(=O)CCC2` (centres unmarked) [compound 16], the EC50 was 5200 nM in assay [1] (setting [7]) and over 30000 nM in assay [2] (setting [8]). The pIC50 in assay [4] (read-out: CatL,^c IC50) is 4.92.
As for `O=[N+]([O-])c1ccc2nc(S(=O)(=O)c3ccc(Cl)cc3)sc2c1` [compound 17], the EC50 in assay [2] (setting [8]) is over 30000 nM. Further, the pIC50 in assay [4] (read-out: CatL,^c IC50) was 5.10.
On to `CC(=O)NC1=C(Cl)C(=O)c2ccccc2C1=O` [compound 18], for which the EC50 in assay [2] (setting [8]) was over 30000 nM.
For the molecule `O=C1C=CC(=O)N1c1cccc(C(F)(F)F)c1` [compound 19], the EC50 in assay [2] (setting [8]) was over 30000 nM.
For the molecule `CCSc1nc(-c2cccc(OCc3ccccc3)c2)cc(C(F)(F)F)n1` [th-BETP, 4-(3-benzyloxyphenyl)-2-ethylsulfanyl-6-(trifluoromethyl)pyrimidine], in assay [1] (setting [5]), the EC50 is over 30000 nM.
